Here are results for three compounds from PubChem BioAssay (NCI).

Molecules are shown by their SMILES.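 96-well plates; 48 h exposure; 5 concentrations. Endpoints by linear interpolation between flanking doses. Not reached: highest tested concentration assigned. GI50: concentration for 50% inhibition of growth. TGI: concentration producing complete growth inhibition.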

Among the test systems are A498 renal; NCI-H522 lung; MALME-3M melanoma; OVCAR-5 ovarian; ACHN renal; HT29 colon; UACC-257 melanoma; OVCAR-8 ovarian; M14 melanoma; MOLT-4 leukemia.
What all share (assay): inhibition of tumour cell growth, NCI panel, 48 h

Regarding `COc1ccc(C(=O)OC2C(OC3C(O)COC(O[C@H]4C[C@H]5[C@@H]6CC=C7C[C@@H](O)CC[C@]7(C)[C@H]6CC[C@]5(C)[C@H]4[C@H](C)C(=O)CCC(C)C)C3OC(=O)C(C)C)OCC(O)C2O)cc1` (stereo not given in full), the GI50 was 0.00395 µM in the assay on A498 renal; 0.0306 µM in the assay with NCI-H522 lung; 0.0411 µM with MALME-3M melanoma; 0.204 µM in the assay with OVCAR-5 ovarian; 0.111 µM with ACHN renal; 0.0507 µM in the assay with HT29 colon. Moreover, the GI50 in the assay on UACC-257 melanoma was 0.0342 µM; in the assay with OVCAR-8 ovarian, 2.82 µM; in the assay on M14 melanoma, 0.00812 µM; in the assay on MOLT-4 leukemia, 0.00649 µM. For the same compound, the TGI was found to be 0.0161 µM in the assay on A498 renal; 0.273 µM in the assay with NCI-H522 lung; 2.88 µM in the assay on MALME-3M melanoma; 5.22 µM in the assay with OVCAR-5 ovarian; 4.82 µM in the assay with ACHN renal; 4.85 µM with HT29 colon. Besides, the TGI in the assay on UACC-257 melanoma turned out to be 0.114 µM; with OVCAR-8 ovarian, 8.4 µM; in the assay with M14 melanoma, 0.0389 µM; in the assay with MOLT-4 leukemia it was 0.0192 µM.
For the compound `CS(=O)(=O)c1nccc(-c2c(-c3cccc(OCc4ccccc4)c3)nc3sccn23)n1`, the GI50 is 13.5 µM in the assay with A498 renal; 9.12 µM in the assay with NCI-H522 lung; 16.4 µM in the assay on MALME-3M melanoma; over 100 µM in the assay with OVCAR-5 ovarian; 36.4 µM with ACHN renal; over 41.2 µM in the assay on HT29 colon. Also, the GI50 with UACC-257 melanoma was 10.4 µM; with OVCAR-8 ovarian, over 27.4 µM; in the assay on M14 melanoma it was 13.9 µM; in the assay with MOLT-4 leukemia, 1.64 µM. Also, the TGI in the assay with A498 renal is over 89.9 µM; with NCI-H522 lung it was over 100 µM; in the assay with MALME-3M melanoma, over 100 µM; with OVCAR-5 ovarian it was over 100 µM; in the assay with ACHN renal, over 100 µM; in the assay with HT29 colon, over 100 µM. Further, the TGI with UACC-257 melanoma is 32.5 µM; in the assay with OVCAR-8 ovarian it was over 100 µM; in the assay on M14 melanoma it was over 100 µM; with MOLT-4 leukemia, over 100 µM.
Turning to `C=C(c1ccccc1)[C@@]1(O)CCCC[C@H]1NC(c1ccccc1)c1ccccc1`, the TGI turned out to be 27.7 µM with A498 renal; 21.6 µM with NCI-H522 lung; 30.7 µM with MALME-3M melanoma; 27 µM in the assay with OVCAR-5 ovarian; 23.9 µM with ACHN renal; 27.3 µM in the assay on HT29 colon. The TGI in the assay with UACC-257 melanoma was determined as 25.1 µM; with OVCAR-8 ovarian it was 28.1 µM; in the assay on M14 melanoma it was 27.6 µM; in the assay with MOLT-4 leukemia, 8.24 µM.
